Data as given in patent publication US20250163048A1 (Tango Therapeutics, Inc., priority 2022, published 2025).
Like-named read-outs stand apart in the source and are kept apart here.

What was measured:
MTAP-deleted cell line = experiment: viability assay for the MTAP-deleted cell line; format: cell-based
[1] = tested on: HAP1 MTAP-intact cell line; experiment: SDMA in-cell western assay, HAP1 MTAP-intact
[2] = tested on: HAP1 MTAP-deleted cell line; experiment: SDMA in-cell western assay, HAP1 MTAP-deleted; conditions: for Hap1 MTAP intact/deleted ratio: IC50 ratio between HAP1 MTAP-intact and HAP1 MTAP-deleted cell line
[3] = Homo sapiens, HAP1, viability assay
[4] = Homo sapiens, HAP1, read-out: Hap1 MTAP intact IC50, SDMA in-cell western, HAP1 MTAP-intact cell line
[5] = Homo sapiens, HAP1, read-out: Hap1 MTAP deleted IC50, SDMA in-cell western, HAP1 MTAP-deleted cell line
[6] = Homo sapiens, HAP1, read-out: Hap1 MTAP deleted IC90, SDMA in-cell western, HAP1 MTAP-deleted cell line
[7] = Homo sapiens, HAP1, read-out: Hap1 MTAP intact IC50, SDMA in-cell western assay, HAP1 MTAP-intact cell line
[8] = Homo sapiens, HAP1, read-out: Hap1 MTAP deleted IC50, SDMA in-cell western assay, HAP1 MTAP-deleted cell line
[9] = Homo sapiens, HAP1, read-out: Hap1 MTAP deleted IC90, SDMA in-cell western assay, HAP1 MTAP-deleted cell line

Structure (SMILES)	IC50 [1, 4] [nM]	IC50 [2, 5] [nM]	IC90 [2, 6] [nM]	IC50 [1, 7] [nM]	IC50 [2, 8] [nM]	IC90 [2, 9] [nM]	IC50 ([1]; read-out: Hap1 MTAP intact IC50, SDMA in-cell western, HAP1 MTAP-intact cell line) [nM]	IC50 ([2]; read-out: Hap1 MTAP deleted IC50, SDMA in-cell western, HAP1 MTAP-deleted cell line) [nM]	IC90 ([2]; read-out: Hap1 MTAP deleted IC90, SDMA in-cell western, HAP1 MTAP-deleted cell line) [nM]	IC50 (MTAP-deleted cell line; [3]) [nM]	Hap1 MTAP intact/deleted ratio ([2]; SDMA in-cell western)	Hap1 MTAP intact/deleted ratio ([2]; SDMA in-cell western assay)	IC50 (MTAP-deleted cell line; viability assay, read-out: Hap1 MTAP deleted viability IC50) [nM]
C[C@H]1CC[C@H](c2ccc3cn(C4CC(C)(C)N(C)C(C)(C)C4)nc3c2)N(C(=O)C(=O)Nc2cncc3cn[nH]c23)C1 [Compound 45, 2-oxo-N-(1H-pyrazolo[4,3-c]pyridin-7-yl)-2-[(2R,5S)-5-methyl-2-[2-(1,2,2,6,6-pentamethyl-4-piperidyl)indazol-6-yl]-1-piperidyl]acetamide]	5 to 50	< 5	< 75							< 100	B (“B” indicates an IC50 ratio greater than or equal to 15 fold but lower than 30 fold)		
C[C@@H]1C[C@@H](c2nc3cc([C@H]4CC[C@H](C)CN4C(=O)C(=O)Nc4cncc5cn[nH]c45)ccc3s2)CN(C)C1 (single isomer, unassigned) [Compound 171]	> 50	< 5	< 75							< 100	B (“B” indicates an IC50 ratio greater than or equal to 15 fold but lower than 30 fold)		
C[C@H]1CC[C@H](c2ccc3sc(CCN(C)C)nc3c2)N(C(=O)C(=O)Nc2cncc3[nH]ncc23)C1 (single isomer, unassigned) [Compound 92, 2-(2-(2-(2-(dimethylamino)ethyl)benzo[d]thiazol-5-yl)-5-methylpiperidin-1-yl)-2-oxo-N-(1H-pyrazolo[3,4-c]pyridin-4-yl)acetamide]	> 50	< 5	> 125							< 100	B (“B” indicates an IC50 ratio greater than or equal to 15 fold but lower than 30 fold)		
C[C@H]1CC[C@H](c2ccc3sc(CC4(C)CCN(C)CC4)nc3c2)N(C(=O)C(=O)Nc2cncc3cn[nH]c23)C1 [Compound 142, 2-((2R,5S)-2-(2-((1,4-dimethylpiperidin-4-yl)methyl)benzo[d]thiazol-5-yl)-5-methylpiperidin-1-yl)-2-oxo-N-(1H-pyrazolo[4,3-c]pyridin-7-yl)acetamide]	5 to 50	< 5	< 75							< 100	B (“B” indicates an IC50 ratio greater than or equal to 15 fold but lower than 30 fold)		
CCN1CCC(c2nc3cc([C@H]4CC[C@H](C)CN4C(=O)C(=O)Nc4cncc5cn[nH]c45)ccc3s2)CC1 [Compound 37, 2-((2R,5S)-2-(2-(1-ethylpiperidin-4-yl)benzo[d]thiazol-5-yl)-5-methylpiperidin-1-yl)-2-oxo-N-(1H-pyrazolo[4,3-c]pyridin-7-yl)acetamide]	5 to 50	< 5	< 75							< 100	B (“B” indicates an IC50 ratio greater than or equal to 15 fold but lower than 30 fold)		
C[C@H]1CC[C@H](c2cccc(OCCN(C)C)c2)N(C(=O)C(=O)Nc2cncc3cn[nH]c23)C1 (single isomer, unassigned) [Compound 78]	> 50	< 5	< 75							100 to 1000	B (“B” indicates an IC50 ratio greater than or equal to 15 fold but lower than 30 fold)		
C[C@H]1CC[C@H](c2ccc3sc([C@H]4C[C@H](N(C)C)C4)nc3c2)N(C(=O)C(=O)Nc2cncc3cn[nH]c23)C1 [Compound 64, 2-((2R,5S)-2-(2-(3-(dimethylamino)cyclobutyl)benzo[d]thiazol-5-yl)-5-methylpiperidin-1-yl)-2-oxo-N-(1H-pyrazolo[4,3-c]pyridin-7-yl)acetamide]	5 to 50	< 5	< 75							< 100	B (“B” indicates an IC50 ratio greater than or equal to 15 fold but lower than 30 fold)		
C[C@H]1CC[C@H](c2ccc3cn(C4CCOCC4)nc3c2)N(C(=O)C(=O)Nc2cncc3cn[nH]c23)C1 [Compound 130, 2-oxo-N-(1H-pyrazolo[4,3-c]pyridin-7-yl)-2-[(2R,5S)-5-methyl-2-(2-tetrahydropyran-4-ylindazol-6-yl)-1-piperidyl]acetamide]	> 50	< 5	75 to 125							< 100	A (“A” indicates an IC50 ratio greater than or equal to 30 fold)		
C[C@H]1CC[C@H](c2ccc3nn(C4CCN(C)C(C)(C)C4)cc3c2)N(C(=O)C(=O)Nc2cncc3cn[nH]c23)C1 (single isomer, unassigned) [Compound 20]							5 to 50	< 5	< 75		C (“C” indicates an IC50 ratio of less than 15 fold)		< 100
C[C@H]1CC[C@H](c2ccc3sc(C4CCN(C)CC4)nc3c2)N(C(=O)C(=O)Nc2cnc3c(c2)C(=O)NC3)C1 [Compound 87, 2-oxo-N-(5-oxo-6,7-dihydropyrrolo[3,4-b]pyridin-3-yl)-2-[(2R,5S)-5-methyl-2-[2-(1-methyl-4-piperidyl)-1,3-benzothiazol-5-yl]-1-piperidyl]acetamide]	> 50	5 to 50	> 125							100 to 1000	A (“A” indicates an IC50 ratio greater than or equal to 30 fold)		

Now from value to compound, other results behind:

IC50 [1, 4] [nM]	IC50 [2, 5] [nM]	IC90 [2, 6] [nM]	IC50 [1, 7] [nM]	IC50 [2, 8] [nM]	IC90 [2, 9] [nM]	IC50 ([1]; read-out: Hap1 MTAP intact IC50, SDMA in-cell western, HAP1 MTAP-intact cell line) [nM]	IC50 ([2]; read-out: Hap1 MTAP deleted IC50, SDMA in-cell western, HAP1 MTAP-deleted cell line) [nM]	IC90 ([2]; read-out: Hap1 MTAP deleted IC90, SDMA in-cell western, HAP1 MTAP-deleted cell line) [nM]	Structure (SMILES)	IC50 (MTAP-deleted cell line; [3]) [nM]	Hap1 MTAP intact/deleted ratio ([2]; SDMA in-cell western)	Hap1 MTAP intact/deleted ratio ([2]; SDMA in-cell western assay)	IC50 (MTAP-deleted cell line; viability assay, read-out: Hap1 MTAP deleted viability IC50) [nM]
			5 to 50	< 5	< 75				C[C@H]1CC[C@H](c2ccc(CCN(C)C)cc2)N(C(=O)C(=O)Nc2cnc(N)c3cn[nH]c23)C1 (racemic) [Compound 263, N-(4-Amino-2H-pyrazolo[4,3-c]pyridin-7-yl)-2-oxo-2-[rac-(2R,5S)-2-[4-[2-(dimethylamino)ethyl]phenyl]-5-methyl-1-piperidyl]acetamide]	< 100		C (“C” indicates an IC50 ratio of less than 15 fold)	
> 50	> 50	> 125							Cc1ccc([C@H]2CC[C@@H](C)CN2C(=O)C(=O)Nc2cnc(N)c3cn[nH]c23)cn1 [Compound 135, N-(4-amino-1H-pyrazolo[4,3-c]pyridin-7-yl)-2-oxo-2-[(2R,5R)-5-methyl-2-(6-methyl-3-pyridyl)-1-piperidyl]acetamide]	> 1000	C (“C” indicates an IC50 ratio of less than 15 fold)		
> 50	< 5	< 75							C[C@H]1CC[C@H](c2ccc(F)c(Cl)c2)N(C(=O)C(=O)Nc2cnc(N)c3cn[nH]c23)C1 (racemic) [Compound 184, N-(4-amino-1H-pyrazolo[4,3-c]pyridin-7-yl)-2-(rac-(2S,5R)-2-(3-chloro-4-fluorophenyl)-5-methylpiperidin-1-yl)-2-oxoacetamide]	< 100	A (“A” indicates an IC50 ratio greater than or equal to 30 fold)		
			> 50	5 to 50	> 125				CCn1nccc1[C@H]1CC[C@@H](C)CN1C(=O)C(=O)Nc1cnc(N)c2cn[nH]c12 (stereo in doubt) [Compound 285, N-(4-Amino-1H-pyrazolo[4,3-c]pyridin-7-yl)-2-oxo-2-[rac-(2R,5R)-2-(2-ethylpyrazol-3-yl)-5-methyl-1-piperidyl]acetamide]	100 to 1000		A (“A” indicates an IC50 ratio greater than or equal to 30 fold)	
			5 to 50	< 5	< 75				CC(C)n1cc2cc([C@H]3CC[C@H](C)CN3C(=O)C(=O)Nc3cnc(N)c4cn[nH]c34)ccc2n1 (racemic) [Compound 231, N-(4-Amino-1H-pyrazolo[4,3-c]pyridin-7-yl)-2-oxo-2-[rac-(2R,5S)-2-(2-isopropylindazol-5-yl)-5-methyl-1-piperidyl]acetamide]	< 100		A (“A” indicates an IC50 ratio greater than or equal to 30 fold)	
5 to 50	< 5	< 75							C[C@H]1CC[C@H](c2cccc(OC[C@@H](C)N(C)C)c2)N(C(=O)C(=O)Nc2cnc(N)c3cn[nH]c23)C1 [Compound 149, N-(4-amino-1H-pyrazolo[4,3-c]pyridin-7-yl)-2-((2R,5S)-2-(3-((R)-2-(dimethylamino)propoxy)phenyl)-5-methylpiperidin-1-yl)-2-oxoacetamide]	< 100	C (“C” indicates an IC50 ratio of less than 15 fold)		
			> 50	< 5	< 75				COc1cc([C@H]2CC[C@H](C)CN2C(=O)C(=O)Nc2cnc(N)c3cn[nH]c23)cc(C)n1 [Compound 219, N-(4-Amino-1H-pyrazolo[4,3-c]pyridin-7-yl)-2-oxo-2-[(2R,5S)-2-(2-methoxy-6-methyl-4-pyridyl)-5-methyl-1-piperidyl]acetamide]	< 100		A (“A” indicates an IC50 ratio greater than or equal to 30 fold)	
			5 to 50	< 5	< 75				C[C@H]1CC[C@H](c2ccc3c(c2)OCC3)N(C(=O)C(=O)Nc2cnc(N)c3cn[nH]c23)C1 (racemic) [Compound 238]	< 100		A (“A” indicates an IC50 ratio greater than or equal to 30 fold)	
